Where a SMILES comes first, the peptide text is derived from it. Bridges are numbered along the chain shown (N, C = ends).
What was measured:
[1] = Thioflavin T fluorescence measurements; type: physicochemical; conditions: Gly-HCl pH 2.5; dissolved; c=2 mg/mL; excitation 440±10 nm, emission 490±10 nm
Protocol: Plectasin stock solutions were dialyzed against 10 mM acetate buffer pH 5.5. A final concentration of 2 mg/mL (450 µM) was obtained by dilution with the dialysis buffer and ThT was added to a final concentration of 20 µM. The fluorescence was monitored after each cycle at 490 ± 10 nm with excitation at 440 ± 10 nm with a gain of 1000 using FLOUstar Omega multi-mode microplate reader (BMG Labtech). Omega software was used to control the plate reader and export the data. Insulin was fibrillated at 40 °C with agitation (600 rpm) for 150 s every 5 min[79]. Additionally, the fluorescence of a sample containing insulin fibrils at a protein concentration of 2 mg/mL was compared to freshly dialyzed plectasin in 10 mM acetate buffer pH 3.5 and pH 5.5 and a sample diluted into 10 mM acetate buffer pH 5.5 and 10 mM phosphate buffer pH 6.5, equilibrated for 12 h was compared (end-point measurement).

[2] = cited from earlier work
Excerpt: The structure of plectasin is stabilized by three disulfide bridges (C4-C30; C15-C37; C19-C39), which is typical for this type of defensins and leads to high confor ...

[3] = molecular target: plectasin variant D9S Q14K V36L (PPI42); experiment: dynamic light scattering; pH series, phosphate buffer above pH 6, 2 mg/mL (450 µM), 25 °C
[4] = pKa by 2D 1H-1H TOCSY NMR pH titration; type: physicochemical; conditions: imidazole ring protons, 50 mM phosphate buffer, 298 K
Excerpt: 2D ^1H–^1H TOCSY NMR spectra were acquired by sampling the FID for 117 and 14.5 milliseconds by acquiring 1024 × 128 complex data points in the direct and indirect dimensions, respectively. For these ^1H–^1H TOCSY NMR experiments, 16 transients were acquired with an inter-scan relaxation delay of 1 second. All NMR spectra were processed with ample zero filling in all spectral dimensions in Bruker Topspin 3.5 pl7 software and integrated into the same software. Data were plotted in proFit 7 (Quantum Soft). Titration curves were fitted to the Henderson-Hasselbalch equation in proFit 7 as δobs=(δA+10^pKa−pH*δHA)/(1+10^pKa−pH), where δobs is the measured chemical shift, δA is the chemical shift of the deprotonated form and δHA is the chemical shift of the protonated form. The pH of the sample was determined after the measurement.

[5] = test system: female NMRI mice; conditions: single intravenous bolus 50 mg/kg, observed 4 days, previously performed, ref ICAAC 2006 poster F2-1166; cited from earlier work
Excerpt: page 11: homeostatic conditions.

[6] = molecular target: His16 (position 16, …); experiment: NMR; conditions: 298 K; not stated (50 mM buffer; no added salt mentioned); 50 mM phosphate according to the Fig. 6b caption. Methods: 50 mM phosphate or 50 mM acetate, with the stock dialysed against 10 mM acetate pH 3.5 and diluted into the final buffer.; Folded, disulfide-intact soluble monomer at 250 µM total protein; fibrils forming at higher pH are NMR-invisible
[7] = molecular target: His18 (position 18, …); experiment: NMR; conditions: 298 K; not stated (50 mM buffer; no added salt mentioned); 50 mM phosphate according to the Fig. 6b caption. Methods: 50 mM phosphate or 50 mM acetate, with the stock dialysed against 10 mM acetate pH 3.5 and diluted into the final buffer.; Folded, disulfide-intact soluble monomer at 250 µM total protein; fibrils forming at higher pH are NMR-invisible

## Insulin: positive control known to form amyloid fibrils upon shaking at 40 °C
[1]
  Thioflavin T fluorescence (490 nm), end-point: 13428.8

## CC[C@H](C)[C@@H]1NC(=O)[C@H](CO)NC(=O)[C@H](CCCCN)NC(=O)[C@@H]2CSSC[C@@H](C(=O)N[C@@H](Cc3ccc(O)cc3)C(=O)O)NC(=O)[C@H](CCCCN)NC(=O)[C@@H]3CSSC[C@H](NC(=O)[C@H](CCC(N)=O)NC(=O)[C@H](CCSC)NC(=O)[C@H](CC(=O)O)NC(=O)[C@H](CC(=O)O)NC(=O)[C@H](CCC(=O)O)NC(=O)[C@H](CC(=O)O)NC(=O)[C@H](Cc4c[nH]c5ccccc45)NC(=O)[C@@H]4CCCN4C(=O)CNC(=O)[C@H](CC(N)=O)NC(=O)[C@@H](NC(=O)CNC(=O)[C@H](Cc4ccccc4)NC(=O)CN)CSSC[C@H](NC(=O)[C@H](Cc4ccc(O)cc4)NC(=O)CNC(=O)CNC(=O)[C@H](CCCCN)NC(=O)[C@H](Cc4ccc(O)cc4)NC(=O)CNC(=O)[C@H](CCCCN)NC1=O)C(=O)N[C@@H](C)C(=O)N[C@@H](CCCCN)C(=O)NCC(=O)NCC(=O)N[C@@H](Cc1ccccc1)C(=O)N[C@@H](C(C)C)C(=O)N3)C(=O)N[C@@H](Cc1c[nH]cn1)C(=O)N[C@@H](CC(N)=O)C(=O)N[C@@H](Cc1c[nH]cn1)C(=O)N2 [plectasin wildtype]
[2]
  in vivo half-life: long in vivo half-life
  serum stability: high serum stability
  toxicity: low toxicity

## plectasin variant D9S Q14K V36L (PPI42) (peptide)
[3]
  fraction of medium-sized oligomers and fibrils (% mass): < 2.5 % mass

## CC[C@H](C)[C@@H]1NC(=O)[C@H](CO)NC(=O)[C@H](CCCCN)NC(=O)[C@@H]2CSSC[C@@H](C(=O)N[C@@H](Cc3ccc(O)cc3)C(=O)O)NC(=O)[C@H](CCCCN)NC(=O)[C@@H]3CSSC[C@H](NC(=O)[C@H](CCCCN)NC(=O)[C@H](CCSC)NC(=O)[C@H](CC(=O)O)NC(=O)[C@H](CC(=O)O)NC(=O)[C@H](CCC(=O)O)NC(=O)[C@H](CO)NC(=O)[C@H](Cc4c[nH]c5ccccc45)NC(=O)[C@@H]4CCCN4C(=O)CNC(=O)[C@H](CC(N)=O)NC(=O)[C@@H](NC(=O)CNC(=O)[C@H](Cc4ccccc4)NC(=O)CN)CSSC[C@H](NC(=O)[C@H](Cc4ccc(O)cc4)NC(=O)CNC(=O)CNC(=O)[C@H](CCCCN)NC(=O)[C@H](Cc4ccc(O)cc4)NC(=O)CNC(=O)[C@H](CCCCN)NC1=O)C(=O)N[C@@H](C)C(=O)N[C@@H](CCCCN)C(=O)NCC(=O)NCC(=O)N[C@@H](Cc1ccccc1)C(=O)N[C@@H](CC(C)C)C(=O)N3)C(=O)N[C@@H](Cc1c[nH]cn1)C(=O)N[C@@H](CC(N)=O)C(=O)N[C@@H](Cc1c[nH]cn1)C(=O)N2 [PPI42] (H-GFGCNGPWSEDDMKCHNHCKSIKGYKGGYCAKGGFLCKCY-OH; disulfide 4-30, 15-37, 19-39)
[4]
  pKa for (H16): 4.4
  pKa for (H18): 6.4
[5]
  Maximum Tolerated Dose (MTD): > 50 mg/kg
  No Observed Adverse Effect Level (NOAEL): > 50 mg/kg

## GFGCNGPWSEDDMKCHNHCKSIKGYKGGYCAKGGFLCKCY
[6]
  pKa: around 4.4
[7]
  pKa: around 6.4

— paper PMC9174238, “pH- and concentration-dependent supramolecular assembly of a fungal defensin plectasin variant into helical non-amyloid fibrils” (Nature Communications, 2022)
